According to the supplement of paper PMC10883282:

Experiments:
Experiment in all cases: relative viability vs DMSO control (72 h) (fraction); higher = more viable cells
SYO-1 = test system: SYO-1
Outline: (§1)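 Sarcoma cell lines were plated in 384 wells to reach 80–90% confluence, treated after 24 h with 2.5 µl of serially diluted compound and held 72 h at 37 °C, 5% CO2. Relative viability was taken as percent growth from ATPLite readings, averaged over up to triplicate wells. The values were rescaled so that 1 marks full and 0 marks none.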

RD = test system: RD
Outline: as §1

SW684 = test system: SW684
Outline: as §1

SW872 = test system: SW872
Outline: as §1

HS729 = test system: HS729
Outline: as §1

SW1353 = test system: SW1353
Outline: as §1

KHOS-NP = test system: KHOS-NP
Outline: as §1

G401 = test system: G401
Outline: as §1

HT1080 = test system: HT1080
Outline: as §1

RD-ES = test system: RD-ES
Outline: as §1

SK-LMS-1 = test system: SK-LMS-1
Outline: as §1

KHOS-240S = test system: KHOS-240S
Outline: as §1

Cc1cc(Nc2ncc(Cl)c(Nc3ccccc3S(=O)(=O)C(C)C)n2)c(OC(C)C)cc1C1CCNCC1 [Ceritinib]
Details	relative viability
G401, 0.00017 µM	0.953
G401, 0.00051 µM	0.932
G401, 0.00152 µM	0.971
G401, 0.00457 µM	0.974
G401, 0.01372 µM	0.972
G401, 0.04115 µM	0.961
G401, 0.1235 µM	0.918
G401, 0.3704 µM	0.788
G401, 1.111 µM	0.615
G401, 3.333 µM	0.416
G401, 10 µM	-0.00287
HS729, 0.00017 µM	0.955
HS729, 0.00051 µM	1.02
HS729, 0.00152 µM	1.03
HS729, 0.00457 µM	1.01
HS729, 0.01372 µM	1.03
HS729, 0.04115 µM	1.02
HS729, 0.1235 µM	0.95
HS729, 0.3704 µM	0.847
HS729, 1.111 µM	0.751
HS729, 3.333 µM	0.626
HS729, 10 µM	0.0042
HT1080, 0.00017 µM	1.02
HT1080, 0.00051 µM	1.01
HT1080, 0.00152 µM	1.02
HT1080, 0.00457 µM	1.04
HT1080, 0.01372 µM	1.02
HT1080, 0.04115 µM	1.06
HT1080, 0.1235 µM	1.04
HT1080, 0.3704 µM	1.03
HT1080, 1.111 µM	0.983
HT1080, 3.333 µM	0.777
HT1080, 10 µM	-0.000267
KHOS-240S, 0.00017 µM	0.991
KHOS-240S, 0.00051 µM	0.992
KHOS-240S, 0.00152 µM	1
KHOS-240S, 0.00457 µM	1.01
KHOS-240S, 0.01372 µM	1.01
KHOS-240S, 0.04115 µM	1.02
KHOS-240S, 0.1235 µM	0.9951
KHOS-240S, 0.3704 µM	0.897
KHOS-240S, 1.111 µM	0.826
KHOS-240S, 3.333 µM	0.439
KHOS-240S, 10 µM	0.0022
KHOS-NP, 0.00017 µM	1.04
KHOS-NP, 0.00051 µM	1.04
KHOS-NP, 0.00152 µM	1.04
KHOS-NP, 0.00457 µM	1.06
KHOS-NP, 0.01372 µM	1.06
KHOS-NP, 0.04115 µM	1.05
KHOS-NP, 0.1235 µM	1.05
KHOS-NP, 0.3704 µM	1.02
KHOS-NP, 1.111 µM	1.02
KHOS-NP, 3.333 µM	0.95
KHOS-NP, 10 µM	0.0055
RD, 0.00017 µM	0.996
RD, 0.00051 µM	1.02
RD, 0.00152 µM	1.04
RD, 0.00457 µM	0.996
RD, 0.01372 µM	1.03
RD, 0.04115 µM	1.02
RD, 0.1235 µM	0.947
RD, 0.3704 µM	0.771
RD, 1.111 µM	0.576
RD, 3.333 µM	0.381
RD, 10 µM	0.001
RD-ES, 0.00017 µM	0.94
RD-ES, 0.00051 µM	0.938
RD-ES, 0.00152 µM	0.955
RD-ES, 0.00457 µM	0.957
RD-ES, 0.01372 µM	0.955
RD-ES, 0.04115 µM	0.943
RD-ES, 0.1235 µM	0.89
RD-ES, 0.3704 µM	0.681
RD-ES, 1.111 µM	0.454
RD-ES, 3.333 µM	0.304
RD-ES, 10 µM	0.00243
SK-LMS-1, 0.00017 µM	1.01
SK-LMS-1, 0.00051 µM	1.04
SK-LMS-1, 0.00152 µM	1.04
SK-LMS-1, 0.00457 µM	1.03
SK-LMS-1, 0.01372 µM	1.022
SK-LMS-1, 0.04115 µM	1.01
SK-LMS-1, 0.1235 µM	1.05
SK-LMS-1, 0.3704 µM	0.959
SK-LMS-1, 1.111 µM	0.96
SK-LMS-1, 3.333 µM	0.794
SK-LMS-1, 10 µM	0.00573
SW684, 0.00017 µM	1.07
SW684, 0.00051 µM	1.083
SW684, 0.00152 µM	1.09
SW684, 0.00457 µM	1.08
SW684, 0.01372 µM	1.12
SW684, 0.04115 µM	1.095
SW684, 0.1235 µM	1.122
SW684, 0.3704 µM	1.08
SW684, 1.111 µM	1.15
SW684, 3.333 µM	0.883
SW684, 10 µM	-0.0212
SW872, 0.00017 µM	1
SW872, 0.00051 µM	1.02
SW872, 0.00152 µM	1.07
SW872, 0.00457 µM	1.06
SW872, 0.01372 µM	1.09
SW872, 0.04115 µM	1.04
SW872, 0.1235 µM	1
SW872, 0.3704 µM	0.946
SW872, 1.111 µM	0.8717
SW872, 3.333 µM	0.631
SW872, 10 µM	-0.00807
SW1353, 0.00017 µM	0.94
SW1353, 0.00051 µM	0.939
SW1353, 0.00152 µM	0.969
SW1353, 0.00457 µM	0.953
SW1353, 0.01372 µM	0.948
SW1353, 0.04115 µM	0.953
SW1353, 0.1235 µM	0.932
SW1353, 0.3704 µM	0.89
SW1353, 1.111 µM	0.901
SW1353, 3.333 µM	0.137
SW1353, 10 µM	0.00227
SYO-1, 0.00017 µM	1.02
SYO-1, 0.00051 µM	1.02
SYO-1, 0.00152 µM	1.06
SYO-1, 0.00457 µM	1.07
SYO-1, 0.01372 µM	1.05
SYO-1, 0.04115 µM	1.01
SYO-1, 0.1235 µM	0.987
SYO-1, 0.3704 µM	0.919
SYO-1, 1.111 µM	0.882
SYO-1, 3.333 µM	0.51
SYO-1, 10 µM	-0.00767
